Test results as given in patent publication US8093231B2, “Sulfonylethyl phosphorodiamidates” (Telik, Inc., priority 2004, dated 2012).

Experiments:
Assay type in all cases: cell-based, human
[1] = tested on: MX-1 (breast carcinoma); assay: Cytotoxicity/growth inhibition assay, MX-1; settings: MX-1 cells, 3 days culture, CellTiter-Glo, 0.1-200 μM tested; read-out: IC50 (MX-1)
Source text: (§1) The human cancer cell lines DLD-1 (colorectal adenocarcinoma), LNCap (prostate carcinoma), and OVCAR-3 (ovarian carcinoma) were obtained from the American Type Culture Collection, Manassas, Va., U.S.A., and HL-60 (promyeloid myelocytic leukemia), MX-1 (breast carcinoma), P388, and P388ADR from the National Cancer Institute, Bethesda, Md., U.S.A. Carboplatin, doxorubicin, and melphalan were obtained from Sigma-Aldrich Chemical Company, St. Louis, Mo., U.S.A. The CellTiter-Glo assay kit was obtained from Promega Corporation, Madison, Wis., U.S.A., and the Cellular DNA Cytometric Analysis Reagent Kit from Roche Diagnostics Corporation, Indianapolis, Ind., U.S.A. Lambda DNA was obtained from New England Biolabs, Beverly, Mass., U.S.A., and SYBR-Gold from Molecular Probes, Inc., Eugene, Oreg., U.S.A. The DNeasy Tissue Kit was obtained from Qiagen Inc., Valencia, Calif., U.S.A., and AmpliTaq Gold DNA polymerase and PCR reagents from Applied Biosystems, Foster City, Calif., U.S.A. All products were used in accordance with manufacturer's directions. All assays were conducted in triplicate wells, with dimethyl sulfoxide (DMSO) solvent control. The extent of cell growth was expressed as a percentage of the signal from the solvent control wells.
(§2) Log-phase cells were trypsinized, collected by centrifugation, and resuspended in a small volume of fresh medium, and the density of viable cells was determined following Trypan Blue staining. Cells were diluted in fresh media (3×10^3 cells/mL for MX-1, 3×10^3 cells/mL for DLD-1, and 6×10^3 cells/mL for LNCap cells), the test compounds (concentrations between 0.1 and 200 μM, dissolved in DMSO, 50 μL) added immediately after dilution to achieve a final DMSO concentration of 0.5%, then the suspensions added at 150 μL/well to 96-well plates, and incubated for several hours to allow attachment in the case of adherent cells. The cells were cultured for approximately three doubling times (3 days for MX-1 and 4 days for DLD-1 and LNCap). The cells were then collected by centrifugation, and 100 μL of the culture supernatant was replaced by the CellTiter-Glo reagent. After incubation for 15 minutes at room temperature, and the plate was read with a luminometer.

[2] = tested on: LNCap (prostate carcinoma); assay: Cytotoxicity/growth inhibition assay, LNCap; settings: LNCap cells, 4 days culture, CellTiter-Glo, 0.1-200 μM tested; read-out: IC50 (LNCap)
Source text: as §1, §2

[3] = tested on: DLD-1 (colorectal adenocarcinoma); assay: Cytotoxicity/growth inhibition assay, DLD-1; settings: DLD-1 cells, 4 days culture, CellTiter-Glo, 0.1-200 μM tested; read-out: IC50 (DLD-1)
Source text: as §1, §2

Structure (SMILES) | IC50 [1] [µM] | IC50 [2] [µM] | IC50 [3] [µM]
CN(CC(=O)O)C(=O)CS(=O)(=O)CCOP(=O)(N(CCCl)CCCl)N(CCCl)CCCl [Compound 34A] | 9 | 97.2 | 12
CC(C)(C)OC(=O)CCNC(=O)CS(=O)(=O)CCOP(=O)(N(CCCl)CCCl)N(CCCl)CCCl [Compound 37A] | 8 | 28.9 | 8
CC(C)(C)OC(=O)CNC(=O)CS(=O)(=O)CCOP(=O)(N(CCCl)CCCl)N(CCCl)CCCl [Compound 38A] | 8 | 23.3 | 7.6
CC(=O)N[C@@H](CS(=O)(=O)CCOP(=O)(N(CCCl)CCCl)N(CCCl)CCCl)C(=O)O [Compound 73A] | 29.6 | 73.2 | 18
CC(=O)NC(C(=O)O)C(C)(C)S(=O)(=O)CCOP(=O)(N(CCCl)CCCl)N(CCCl)CCCl (stereo not drawn) [Compound 74A] | 46.7 | ≥ 200 | 27.2
CC(C)(C(N)C(=O)O)S(=O)(=O)CCOP(=O)(N(CCCl)CCCl)N(CCCl)CCCl (stereo not drawn) [Compound 75A] | 33.1 | 185 | 7.6
CC(C)(C(N)C(=O)O)S(=O)(=O)CCOP(=O)(N(CCCl)CCCl)N(CCCl)CCCl (stereo not drawn) [Compound 76A] | 23.2 | 99.7 | 6.6
N[C@@H](CCS(=O)(=O)CCOP(=O)(N(CCCl)CCCl)N(CCCl)CCCl)C(=O)O [Compound 77A] | 21.3 | 140 | 8
NC(=O)[C@@H](N)CS(=O)(=O)CCOP(=O)(N(CCCl)CCCl)N(CCCl)CCCl [Compound 78A] | 18.8 | ≥ 200 | 6.3
COC(=O)[C@H](CS(=O)(=O)CCOP(=O)(N(CCCl)CCCl)N(CCCl)CCCl)NS(=O)(=O)c1ccccc1 [Compound 80A] | 27.1 | 80.2 | 10.7
COC(=O)[C@H](CS(=O)(=O)CCOP(=O)(N(CCCl)CCCl)N(CCCl)CCCl)NS(=O)(=O)c1ccc(Cl)cc1 [Compound 81A] | 33.3 | 86.6 | 6.9
N[C@@H](CS(=O)(=O)CCOP(=O)(N(CCCl)CCCl)N(CCCl)CCCl)C(=O)OCc1ccccc1 [Compound 82A] | 27.9 | 59.8 | 7.7
CC(C)(C)OC(=O)N[C@@H](CS(=O)(=O)CCOP(=O)(N(CCCl)CCCl)N(CCCl)CCCl)C(=O)N1CCOCC1 [Compound 83A] | 12.9 | 27.8 | 6.7
CC(C)NC(=O)[C@H](CS(=O)(=O)CCOP(=O)(N(CCCl)CCCl)N(CCCl)CCCl)NC(=O)OC(C)(C)C [Compound 84A] | 10.6 | 29.6 | 6
CC(C)(C)OC(=O)N[C@@H](CS(=O)(=O)CCOP(=O)(N(CCCl)CCCl)N(CCCl)CCCl)C(=O)N1CCN(C(=O)c2ccco2)CC1 [Compound 85A] | 11.8 | 41.1 | 8.8
CC(C)(C)OC(=O)N[C@@H](CS(=O)(=O)CCOP(=O)(N(CCCl)CCCl)N(CCCl)CCCl)C(=O)NCCO [Compound 86A] | 25.1 | 73.5 | 10.3
N[C@@H](CS(=O)(=O)CCOP(=O)(N(CCCl)CCCl)N(CCCl)CCCl)C(=O)N1CCOCC1 [Compound 87A] | 19.5 | 136 | 9.7
N[C@@H](CS(=O)(=O)CCOP(=O)(N(CCCl)CCCl)N(CCCl)CCCl)C(=O)NCCO [Compound 88A] | 17.9 | 126 | 9.5
CC(C)NC(=O)[C@@H](N)CS(=O)(=O)CCOP(=O)(N(CCCl)CCCl)N(CCCl)CCCl [Compound 89A] | 22.2 | 140 | 8.5
N[C@@H](CS(=O)(=O)CCOP(=O)(N(CCCl)CCCl)N(CCCl)CCCl)C(=O)N1CCN(C(=O)c2ccco2)CC1 [Compound 90A] | 23.8 | ≥ 200 | 10.4
O=C(NCc1ccccc1)[C@H](CS(=O)(=O)CCOP(=O)(N(CCCl)CCCl)N(CCCl)CCCl)NS(=O)(=O)c1ccccc1 [Compound 91A] | 10.7 | 33.3 | 4.8

Structure (SMILES) | IC50 [1] [µM] | IC50 [2] [µM] | IC50 [3] [µM]
CC(C)NC(=O)[C@H](CS(=O)(=O)CCOP(=O)(N(CCCl)CCCl)N(CCCl)CCCl)NS(=O)(=O)c1ccccc1 [Compound 92A] | 14.7 | 36.1 | 7.3
O=C(c1ccco1)N1CCN(C(=O)[C@H](CS(=O)(=O)CCOP(=O)(N(CCCl)CCCl)N(CCCl)CCCl)NS(=O)(=O)c2ccccc2)CC1 [Compound 93A] | 19.3 | 59.1 | 13.2
N[C@@H](CS(=O)(=O)CCOP(=O)(N(CCCl)CCCl)N(CCCl)CCCl)C(=O)NCCC(=O)O [Compound 94A] | 22.8 | ≥ 200 | 37.5
CS(=O)(=O)N[C@@H](CS(=O)(=O)CCOP(=O)(N(CCCl)CCCl)N(CCCl)CCCl)C(=O)NCc1ccccc1 [Compound 95A] | 21.3 | 46.6 | 9.9
CS(=O)(=O)N[C@@H](CS(=O)(=O)CCOP(=O)(N(CCCl)CCCl)N(CCCl)CCCl)C(=O)N1CCOCC1 [Compound 96A] | 30.2 | 81 | 9.6
CC(C)NC(=O)[C@H](CS(=O)(=O)CCOP(=O)(N(CCCl)CCCl)N(CCCl)CCCl)NS(C)(=O)=O [Compound 97A] | 26.8 | 57.8 | 8.5
CS(=O)(=O)N[C@@H](CS(=O)(=O)CCOP(=O)(N(CCCl)CCCl)N(CCCl)CCCl)C(=O)N1CCN(C(=O)c2ccco2)CC1 [Compound 98A] | 27.9 | 144 | 9.9
N#Cc1ccc(S(=O)(=O)N[C@@H](CS(=O)(=O)CCOP(=O)(N(CCCl)CCCl)N(CCCl)CCCl)C(=O)NCc2ccccc2)cc1 [Compound 99A] | 16.2 | 33.5 | 6.4
N#Cc1ccc(S(=O)(=O)N[C@@H](CS(=O)(=O)CCOP(=O)(N(CCCl)CCCl)N(CCCl)CCCl)C(=O)N2CCOCC2)cc1 [Compound 100A] | 16.2 | 61.4 | 7.4
CC(C)NC(=O)[C@H](CS(=O)(=O)CCOP(=O)(N(CCCl)CCCl)N(CCCl)CCCl)NS(=O)(=O)c1ccc(C#N)cc1 [Compound 101A] | 14.8 | 57 | 7.2
N#Cc1ccc(S(=O)(=O)N[C@@H](CS(=O)(=O)CCOP(=O)(N(CCCl)CCCl)N(CCCl)CCCl)C(=O)N2CCN(C(=O)c3ccco3)CC2)cc1 [Compound 102A] | 19.9 | 81.6 | 9.2
O=C(O)[C@H](CS(=O)(=O)CCOP(=O)(N(CCCl)CCCl)N(CCCl)CCCl)NS(=O)(=O)c1ccccc1 [Compound 103A] | 18.2 | 151 | 14.5
CS(=O)(=O)N[C@@H](CS(=O)(=O)CCOP(=O)(N(CCCl)CCCl)N(CCCl)CCCl)C(=O)O [Compound 104A] | 25.3 | ≥ 200 | 20
O=C(O)[C@H](CS(=O)(=O)CCOP(=O)(N(CCCl)CCCl)N(CCCl)CCCl)NS(=O)(=O)c1ccc(Cl)cc1 [Compound 105A] | 31.6 | ≥ 200 | 23.1
O=P(OCCS(=O)(=O)c1ccccc1Cl)(N(CCCl)CCCl)N(CCCl)CCCl [Compound 106A] | 4.2 | 18.3 | 3.7
Cc1ccc(S(=O)(=O)CCOP(=O)(N(CCCl)CCCl)N(CCCl)CCCl)cc1 [Compound 107A] | 2.5 | 18.1 | 1.6
O=P(OCCS(=O)(=O)c1ccc(Cl)cc1)(N(CCCl)CCCl)N(CCCl)CCCl [Compound 108A] | 3.3 | 6.4 | 2.3
O=P(OCCS(=O)(=O)c1ccc(C(F)(F)F)cc1)(N(CCCl)CCCl)N(CCCl)CCCl [Compound 109A] | 1.1 | 7.7 | 0.6
Cc1cccc(S(=O)(=O)CCOP(=O)(N(CCCl)CCCl)N(CCCl)CCCl)c1 [Compound 110A] | 2.7 | 20.5 | 1.3
O=P(OCCS(=O)(=O)c1ccc(F)cc1)(N(CCCl)CCCl)N(CCCl)CCCl [Compound 111A] | 1.3 | 20.1 | 0.6
